# Assay results: patent US9567329B2, “High penetration prodrug compositions of 1H-imidazo[4,5-c]quinolin-4-amines and 1H-imidazo[4,5-c]quinolin-4-amine-related compounds and uses thereof” (Techfields Pharma Co., Ltd, priority 2007, dated 2017)
# Key:
# [1] = In vitro penetration rate across human skin in modified Franz cells; type: in vitro ADME; conditions: 3% suspension in ethanol/pH 7.4 phosphate buffer (0.2 M) 70/30
# Protocol: Penetration rates of HPPs and their parent drugs through human skin were measured in vitro by modified Franz cells. A Franz cell had two chambers, the top sample chamber and the bottom receiving chamber. The human skin tissue (360-400 μm thick) that separated the top and the receiving chambers was isolated from the anterior or posterior thigh areas.
# A compound tested (0.5 mL, 3% in a mixture of ethanol and phosphate buffer (0.2M, pH 7.4) (v/v, 70/30)) was added to the sample chamber of a Franz cell. The receiving chamber contains 2 ml of 2% bovine serum albumin in saline which was stirred at 600 rpm. The amount of the tested compound penetrating the skin was determined by high-performance liquid chromatography (HPLC) method.
# The lowest detectable apparent flux values in this method was 1 μg/cm^2/h.
# [2] = system: herpes simplex virus Type I; assay: Anti-Herpes activity, treated for 5 days, first treatment 5 days after HSV infection; type: in vivo; conditions: guinea pigs
# Protocol: (§1) The evaluation of anti-Herpes activity of these prodrugs was carried out using the method described by Kern, et al. [Antimicrob. Agents Chemother. 14, 817, (1978)].
# (§2) In the third experiment, female guinea pigs (n=10) were anesthetized. The guinea pigs were then infected with herpes simplex virus (type I or Type II, about 10^5 plaque forming units were used) intravaginally using a cotton swab. […] External lesions were scored daily for ten days using the following scale: 0, no lesion; 1, redness and swelling; 2, a few small vesicles; 3, several large vesicles; 4, large ulcers and necrosis; and 5, paralysis. The percent Lesion Inhibition was calculated as follows: 100−[(Sum of maximum lesion scores of treated group divided by the Sum of the scores of infected control)×100] (Table 7).
# [3] = system: herpes simplex virus Type II; assay: as above; type: in vivo; conditions: guinea pigs
# Protocol: as §1, §2
# [4] = system: herpes simplex virus Type I; assay: Anti-Herpes activity, treated for 5 days, first treatment just after HSV infection; type: in vivo; conditions: guinea pigs
# Protocol: as §1
# (§3) In the second experiment, female guinea pigs (n=10) were anesthetized. Herpes simplex virus (Type I or Type II, about 10^5 plaque forming units were used) was applied intravaginally to the guinea pigs using a cotton swab. […] Virus replication was monitored by determining the amount of virus recovered with vaginal swabs taken on day 7 after infection. External lesions were scored daily for ten days using the following scale: 0, no lesion; 1, redness and swelling; 2, a few small vesicles; 3, several large vesicles; 4, large ulcers and necrosis; and 5, paralysis. The percent Lesion Inhibition was calculated as follows: 100−[(Sum of maximum lesion scores of treated group divided by the Sum of the scores of infected control)×100] (Table 6).
# [5] = system: herpes simplex virus Type II; assay: as above; type: in vivo; conditions: guinea pigs
# Protocol: as §1, §3
# interferon production [6] = assay: Interferon inducing activity in guinea pigs (serum protection of fibroblasts from mengovirus); type: in vivo; conditions: serum 18 hours after treatment
# [7] = system: herpes simplex virus Type I; assay: Anti-Herpes activity, treated for 3 days before HSV infection; type: in vivo; conditions: guinea pigs
# Protocol: (§4) The evaluation of anti-Herpes activity of these prodrugs was carried out using the method described by Kern, et al. [Antimicrob. Agents Chemother. 14, 817, (1978)]. In each experiment, female guinea pigs (n=10) were anesthetized. […] Virus replication was monitored by determining the amount of virus recovered with vaginal swabs taken on day 7 after infection. […] The percent Lesion Inhibition was calculated as follows: 100-[(Sum of maximum lesion scores of treated group divided by the Sum of the scores of infected control)×100] (Table 5).
# [8] = system: herpes simplex virus Type II; assay: as above; type: in vivo; conditions: guinea pigs
# Protocol: as §4
# interferon production [9] = assay: Interferon inducing activity in guinea pigs (serum protection of fibroblasts from mengovirus); type: in vivo; conditions: serum 18 hours after treatment; remark: listed apart in the source
# Protocol: Without being bound by any mechanism, the ability to induce interferon production of the pro-drugs of the invention was evaluated in guinea pigs (n=10). Untreated guinea pigs provided controls.
# Each test drug was administered to real back skin of a guinea pig at a specific dose of about 0.5-4.5 mg/kg respectively.
# Each treated and control guinea pig was bled 18 hours after drug treatment and its serum was assayed for interferon activity. The serum was diluted and incubated with guinea pig fibroblast cells at 37° C. overnight in 96 well microtiter plates. The incubated cells were then challenged with an inoculum of mengovirus that was sufficient to kill untreated cells in two days. Two days after such challenge, the cells were examined both microscopically and after staining with crystal violet to determine whether the cells remained intact.
# Table 4 contains the results of the study with activity/ml indicating the highest dilute on of serum that protected cells from virus challenge. Untreated guinea pigs provided controls.
# [10] = 0.5 mg/kg once per day for 5 days
# [11] = 1.5 mg/kg once per day for 5 days
# [12] = 4.5 mg/kg once per day for 5 days
# [13] = 0.5 mg/kg once per day for 3 days before HSV infection
# [14] = 1.5 mg/kg once per day for 3 days before HSV infection
# [15] = 4.5 mg/kg once per day for 3 days before HSV infection
structure (smiles),measurement,setting,value
"Cl.Nc1nc2ccccc2c2c1ncn2Cc1ccccc1 [1-benzyl-1H-imidazo[4,5-c]quinolin-4-amine hydrochloride, reference compound]",In vitro Penetration Rate of Parent compounds (apparent flux),[1],0.005 mg/cm^2/h
"CCCCn1cnc2c(N)nc3ccccc3c21.Cl [1-butyl-1H-imidazo[4,5-c]quinolin-4-amine hydrochloride, reference compound]",In vitro Penetration Rate of Parent compounds (apparent flux),[1],0.005 mg/cm^2/h
"CCCCCCn1cnc2c(N)nc3ccccc3c21.Cl [1-hexyl-1H-imidazo[4,5-c]quinolin-4-amine hydrochloride, reference compound]","% Lesion inhibition of the parent drug, intravaginal, Herpes type I",[2]; [10],2%
same,"% Lesion inhibition of the parent drug, transdermal, Herpes type I",[2]; [10],2%
same,"% Lesion inhibition of the parent drug, intravaginal, Herpes type I",[2]; [11],2%
same,"% Lesion inhibition of the parent drug, transdermal, Herpes type I",[2]; [11],2%
same,"% Lesion inhibition of the parent drug, intravaginal, Herpes type I",[2]; [12],35%
same,"% Lesion inhibition of the parent drug, transdermal, Herpes type I",[2]; [12],18%
same,"% Lesion inhibition of the parent drug, intravaginal, Herpes type II",[3]; [10],2%
same,"% Lesion inhibition of the parent drug, transdermal, Herpes type II",[3]; [10],2%
same,"% Lesion inhibition of the parent drug, intravaginal, Herpes type II",[3]; [11],2%
same,"% Lesion inhibition of the parent drug, transdermal, Herpes type II",[3]; [11],2%
same,"% Lesion inhibition of the parent drug, intravaginal, Herpes type II",[3]; [12],37%
same,"% Lesion inhibition of the parent drug, transdermal, Herpes type II",[3]; [12],21%
same,"% Lesion inhibition of the parent drug, intravaginal, Herpes type I",[4]; [10],2%
same,"% Lesion inhibition of the parent drug, transdermal, Herpes type I",[4]; [10],2%
same,"% Lesion inhibition of the parent drug, intravaginal, Herpes type I",[4]; [11],11%
same,"% Lesion inhibition of the parent drug, transdermal, Herpes type I",[4]; [11],5%
same,"% Lesion inhibition of the parent drug, intravaginal, Herpes type I",[4]; [12],68%
same,"% Lesion inhibition of the parent drug, transdermal, Herpes type I",[4]; [12],43%
same,"% Lesion inhibition of the parent drug, intravaginal, Herpes type II",[5]; [10],2%
same,"% Lesion inhibition of the parent drug, transdermal, Herpes type II",[5]; [10],2%
same,"% Lesion inhibition of the parent drug, intravaginal, Herpes type II",[5]; [11],11%
same,"% Lesion inhibition of the parent drug, transdermal, Herpes type II",[5]; [11],6%
same,"% Lesion inhibition of the parent drug, intravaginal, Herpes type II",[5]; [12],71%
same,"% Lesion inhibition of the parent drug, transdermal, Herpes type II",[5]; [12],41%
same,"Interferon level of the parent drug, intravaginal",interferon production [6]; 0.5 mg/kg once,286 activity/ml
same,"Interferon level of the parent drug, transdermal",interferon production [6]; 0.5 mg/kg once,178 activity/ml
same,"Interferon level of the parent drug, intravaginal",interferon production [6]; 1.5 mg/kg once,"1,562 activity/ml"
same,"Interferon level of the parent drug, transdermal",interferon production [6]; 1.5 mg/kg once,565 activity/ml
same,"Interferon level of the parent drug, intravaginal",interferon production [6]; 4.5 mg/kg once,"24,786 activity/ml"
same,"Interferon level of the parent drug, transdermal",interferon production [6]; 4.5 mg/kg once,"1,945 activity/ml"
same,"% Lesion inhibition of the parent drug, intravaginal, Herpes type I",[7]; [13],4%
same,"% Lesion inhibition of the parent drug, transdermal, Herpes type I",[7]; [13],2%
same,"% Lesion inhibition of the parent drug, intravaginal, Herpes type I",[7]; [14],16%
same,"% Lesion inhibition of the parent drug, transdermal, Herpes type I",[7]; [14],3%
same,"% Lesion inhibition of the parent drug, intravaginal, Herpes type I",[7]; [15],80%
same,"% Lesion inhibition of the parent drug, transdermal, Herpes type I",[7]; [15],42%
same,"% Lesion inhibition of the parent drug, intravaginal, Herpes type II",[8]; [13],5%
same,"% Lesion inhibition of the parent drug, transdermal, Herpes type II",[8]; [13],2%
same,"% Lesion inhibition of the parent drug, intravaginal, Herpes type II",[8]; [14],18%
same,"% Lesion inhibition of the parent drug, transdermal, Herpes type II",[8]; [14],3%
same,"% Lesion inhibition of the parent drug, intravaginal, Herpes type II",[8]; [15],81%
same,"% Lesion inhibition of the parent drug, transdermal, Herpes type II",[8]; [15],45%
"CCCCCCn1cnc2c(NC(=O)CN(C)C)nc3ccccc3c21.Cl [N,N-dimethylglycine 1-n-hexyl-1H-imidazo[4,5-c]quinolin-4-amide hydrochloride]","% Lesion inhibition of the HPP, intravaginal, Herpes type I",[2]; [10],31%
same,"% Lesion inhibition of the HPP, transdermal, Herpes type I",[2]; [10],28%
same,"% Lesion inhibition of the HPP, intravaginal, Herpes type I",[2]; [11],62%
same,"% Lesion inhibition of the HPP, transdermal, Herpes type I",[2]; [11],52%
same,"% Lesion inhibition of the HPP, intravaginal, Herpes type I",[2]; [12],83%
same,"% Lesion inhibition of the HPP, transdermal, Herpes type I",[2]; [12],82%
same,"% Lesion inhibition of the HPP, intravaginal, Herpes type II",[3]; [10],28%
same,"% Lesion inhibition of the HPP, transdermal, Herpes type II",[3]; [10],25%
same,"% Lesion inhibition of the HPP, intravaginal, Herpes type II",[3]; [11],65%
same,"% Lesion inhibition of the HPP, transdermal, Herpes type II",[3]; [11],55%
same,"% Lesion inhibition of the HPP, intravaginal, Herpes type II",[3]; [12],85%
same,"% Lesion inhibition of the HPP, transdermal, Herpes type II",[3]; [12],81%
same,"% Lesion inhibition of the HPP, intravaginal, Herpes type I",[4]; [10],67%
same,"% Lesion inhibition of the HPP, transdermal, Herpes type I",[4]; [10],37%
same,"% Lesion inhibition of the HPP, intravaginal, Herpes type I",[4]; [11],91%
same,"% Lesion inhibition of the HPP, transdermal, Herpes type I",[4]; [11],73%
same,"% Lesion inhibition of the HPP, intravaginal, Herpes type I",[4]; [12],95%
same,"% Lesion inhibition of the HPP, transdermal, Herpes type I",[4]; [12],90%
same,"% Lesion inhibition of the HPP, intravaginal, Herpes type II",[5]; [10],68%
same,"% Lesion inhibition of the HPP, transdermal, Herpes type II",[5]; [10],38%
same,"% Lesion inhibition of the HPP, intravaginal, Herpes type II",[5]; [11],90%
same,"% Lesion inhibition of the HPP, transdermal, Herpes type II",[5]; [11],75%
same,"% Lesion inhibition of the HPP, intravaginal, Herpes type II",[5]; [12],95%
same,"% Lesion inhibition of the HPP, transdermal, Herpes type II",[5]; [12],91%
same,"Interferon level of the HPP, intravaginal",interferon production [6]; 0.5 mg/kg once,"21,857 activity/ml"
same,"Interferon level of the HPP, intravaginal",interferon production [6]; 1.5 mg/kg once,"57,147 activity/ml"
same,"Interferon level of the HPP, intravaginal",interferon production [6]; 4.5 mg/kg once,"78,569 activity/ml"
same,"% Lesion inhibition of the HPP, intravaginal, Herpes type I",[7]; [13],67%
same,"% Lesion inhibition of the HPP, transdermal, Herpes type I",[7]; [13],38%
same,"% Lesion inhibition of the HPP, intravaginal, Herpes type I",[7]; [14],91%
same,"% Lesion inhibition of the HPP, transdermal, Herpes type I",[7]; [14],67%
same,"% Lesion inhibition of the HPP, intravaginal, Herpes type I",[7]; [15],95%
same,"% Lesion inhibition of the HPP, transdermal, Herpes type I",[7]; [15],91%
same,"% Lesion inhibition of the HPP, intravaginal, Herpes type II",[8]; [13],68%
same,"% Lesion inhibition of the HPP, transdermal, Herpes type II",[8]; [13],40%
same,"% Lesion inhibition of the HPP, intravaginal, Herpes type II",[8]; [14],90%
same,"% Lesion inhibition of the HPP, transdermal, Herpes type II",[8]; [14],68%
same,"% Lesion inhibition of the HPP, intravaginal, Herpes type II",[8]; [15],95%
same,"% Lesion inhibition of the HPP, transdermal, Herpes type II",[8]; [15],93%
same,"Interferon level of the HPP, transdermal",interferon production [9]; 0.5 mg/kg once,"11,756 activity/ml"
same,"Interferon level of the HPP, transdermal",interferon production [9]; 1.5 mg/kg once,"22,537 activity/ml"
same,"Interferon level of the HPP, transdermal",interferon production [9]; 4.5 mg/kg once,"61,758 activity/ml"
